# Experimental data reported in ChEMBL document CHEMBL1201862, “PubChem BioAssay data set” (2004).
# Active and inactive are the calls of the source.
# Experiments:
# Cytochrome P450 3A4 = Cytochrome P450 3A4 (Homo sapiens, UniProt P08684); settings: Potency;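 further: confirmatory qHTS run detecting inhibitors and substrates of CYP3A4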
# [1] = intracellular Trypanosoma cruzi inhibitors in host cells – cell-based, plate reader, cherry-pick samples, set 3, dose response (AID 651818); assay type: functional;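 further: compounds incubated with infected cells for about four days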
# [2] = biological target: T1, Short transient receptor potential channel 4 (Mus musculus, UniProt Q9QUQ5); experiment: mouse TRPC4 channel inhibitors, dose response, cell-based, HEK293 TRPC4/mu-opioid, Fluo-4 calcium (AID 434942); assay type: functional;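 further: potency of inhibitors blocking the TRPC4 calcium response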
# T1 sequence (Q9QUQ5 whole entry): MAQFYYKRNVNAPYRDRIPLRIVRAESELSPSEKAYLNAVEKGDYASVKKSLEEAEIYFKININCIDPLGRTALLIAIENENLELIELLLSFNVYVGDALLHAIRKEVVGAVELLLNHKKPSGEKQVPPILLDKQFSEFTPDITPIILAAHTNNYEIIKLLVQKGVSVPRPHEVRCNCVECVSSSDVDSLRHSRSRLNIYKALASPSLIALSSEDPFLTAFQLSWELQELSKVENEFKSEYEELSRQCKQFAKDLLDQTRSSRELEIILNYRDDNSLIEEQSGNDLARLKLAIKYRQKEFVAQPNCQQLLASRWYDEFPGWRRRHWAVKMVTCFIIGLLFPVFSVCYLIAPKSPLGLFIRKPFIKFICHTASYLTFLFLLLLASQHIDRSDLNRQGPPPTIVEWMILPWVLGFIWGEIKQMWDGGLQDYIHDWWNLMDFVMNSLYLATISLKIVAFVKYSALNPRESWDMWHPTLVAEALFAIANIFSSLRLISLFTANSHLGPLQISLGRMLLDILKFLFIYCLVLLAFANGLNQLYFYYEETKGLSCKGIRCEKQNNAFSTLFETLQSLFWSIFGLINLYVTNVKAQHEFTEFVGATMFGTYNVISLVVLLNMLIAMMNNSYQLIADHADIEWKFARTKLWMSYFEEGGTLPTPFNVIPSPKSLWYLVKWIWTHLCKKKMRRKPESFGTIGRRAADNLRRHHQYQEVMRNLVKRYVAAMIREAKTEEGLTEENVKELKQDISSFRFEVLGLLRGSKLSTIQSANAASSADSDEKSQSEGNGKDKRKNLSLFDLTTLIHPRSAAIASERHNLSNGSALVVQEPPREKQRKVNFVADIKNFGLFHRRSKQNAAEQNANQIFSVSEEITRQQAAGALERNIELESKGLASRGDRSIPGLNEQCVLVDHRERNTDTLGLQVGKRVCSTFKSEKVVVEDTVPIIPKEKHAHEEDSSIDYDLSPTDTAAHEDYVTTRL
# [3] = biological target: T2, Replicative DNA helicase DnaB (Mycobacterium tuberculosis, UniProt P9WMR3); experiment: DnaB intein splicing inhibitors, dose response, biochemical, cell-free fluorescence (AID 449749); assay type: functional
# T2 sequence (P9WMR3 whole entry): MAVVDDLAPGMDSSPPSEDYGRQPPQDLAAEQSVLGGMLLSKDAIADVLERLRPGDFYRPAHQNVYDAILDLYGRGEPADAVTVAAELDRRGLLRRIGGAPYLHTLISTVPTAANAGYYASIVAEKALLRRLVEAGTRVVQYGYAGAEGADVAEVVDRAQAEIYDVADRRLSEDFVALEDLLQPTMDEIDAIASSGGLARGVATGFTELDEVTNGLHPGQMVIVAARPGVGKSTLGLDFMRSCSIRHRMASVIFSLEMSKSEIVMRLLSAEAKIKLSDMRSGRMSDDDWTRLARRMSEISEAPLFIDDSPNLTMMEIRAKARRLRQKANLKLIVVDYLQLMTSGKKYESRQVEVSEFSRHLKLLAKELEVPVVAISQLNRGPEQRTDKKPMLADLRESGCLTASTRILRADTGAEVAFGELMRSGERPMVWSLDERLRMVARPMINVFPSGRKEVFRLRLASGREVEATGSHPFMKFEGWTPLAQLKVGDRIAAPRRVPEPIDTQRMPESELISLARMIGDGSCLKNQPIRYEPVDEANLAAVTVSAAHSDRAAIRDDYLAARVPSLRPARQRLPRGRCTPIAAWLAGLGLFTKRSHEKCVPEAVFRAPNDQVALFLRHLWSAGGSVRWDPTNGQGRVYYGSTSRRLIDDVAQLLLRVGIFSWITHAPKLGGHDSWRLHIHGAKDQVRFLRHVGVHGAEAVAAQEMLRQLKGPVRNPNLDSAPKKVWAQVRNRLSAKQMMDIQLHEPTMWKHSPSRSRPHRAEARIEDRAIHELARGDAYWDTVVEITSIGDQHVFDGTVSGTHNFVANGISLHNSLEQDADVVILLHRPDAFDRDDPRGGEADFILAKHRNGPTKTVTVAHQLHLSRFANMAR
# Protein RecA = biological target: T3, Protein RecA (Mycobacterium tuberculosis, UniProt P9WHJ3); experiment: Fluorescence Cell-Free Homogeneous Dose Retest to Identify Inhibitors of RecA-Intein Splicing Activity. [Related pubchem assays (depositor defined):AID2097, AID2223, AID489010, AID492950]; assay type: functional
# T3 sequence (P9WHJ3 whole entry): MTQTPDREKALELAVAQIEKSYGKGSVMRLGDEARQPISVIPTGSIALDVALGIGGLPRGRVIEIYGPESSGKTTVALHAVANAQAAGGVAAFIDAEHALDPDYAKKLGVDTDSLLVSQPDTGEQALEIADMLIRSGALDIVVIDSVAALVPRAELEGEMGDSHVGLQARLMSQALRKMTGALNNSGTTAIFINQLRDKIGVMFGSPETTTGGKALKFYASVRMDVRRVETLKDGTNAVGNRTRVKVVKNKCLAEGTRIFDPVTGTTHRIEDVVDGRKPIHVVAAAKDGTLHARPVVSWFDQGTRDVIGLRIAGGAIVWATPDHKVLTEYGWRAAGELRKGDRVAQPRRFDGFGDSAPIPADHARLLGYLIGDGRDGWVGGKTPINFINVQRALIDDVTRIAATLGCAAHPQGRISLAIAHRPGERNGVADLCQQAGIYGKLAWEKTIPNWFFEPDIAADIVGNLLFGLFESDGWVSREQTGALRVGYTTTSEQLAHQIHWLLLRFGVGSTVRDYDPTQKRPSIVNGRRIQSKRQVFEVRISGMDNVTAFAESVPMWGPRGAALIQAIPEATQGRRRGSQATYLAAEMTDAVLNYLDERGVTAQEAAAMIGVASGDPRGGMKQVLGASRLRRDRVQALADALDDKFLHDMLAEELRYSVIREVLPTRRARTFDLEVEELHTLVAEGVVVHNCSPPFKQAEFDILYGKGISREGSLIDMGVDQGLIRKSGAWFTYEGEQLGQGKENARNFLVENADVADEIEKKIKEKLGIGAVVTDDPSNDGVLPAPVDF
# INS1 = experiment: beta cell apoptosis inhibitors, cytokine rescue, dose response, luminescence, retest (AID 449756); assay type: functional, cell-based; settings: Rattus norvegicus;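 further: cell death triggered by IL-1 beta plus TNF-alpha plus IFN-gamma mixture; protective hits raise ATP signal compared with cytokine alone wells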
# [4] = biological target: T4, DNA repair and recombination protein RAD54-like (Homo sapiens, UniProt Q92698); experiment: inhibitors of human RAD54 branch migration, confirmation, biochemical, fluorescence, cherry-picked samples, dose series (AID 651657); assay type: functional
# T4 sequence (Q92698 whole entry): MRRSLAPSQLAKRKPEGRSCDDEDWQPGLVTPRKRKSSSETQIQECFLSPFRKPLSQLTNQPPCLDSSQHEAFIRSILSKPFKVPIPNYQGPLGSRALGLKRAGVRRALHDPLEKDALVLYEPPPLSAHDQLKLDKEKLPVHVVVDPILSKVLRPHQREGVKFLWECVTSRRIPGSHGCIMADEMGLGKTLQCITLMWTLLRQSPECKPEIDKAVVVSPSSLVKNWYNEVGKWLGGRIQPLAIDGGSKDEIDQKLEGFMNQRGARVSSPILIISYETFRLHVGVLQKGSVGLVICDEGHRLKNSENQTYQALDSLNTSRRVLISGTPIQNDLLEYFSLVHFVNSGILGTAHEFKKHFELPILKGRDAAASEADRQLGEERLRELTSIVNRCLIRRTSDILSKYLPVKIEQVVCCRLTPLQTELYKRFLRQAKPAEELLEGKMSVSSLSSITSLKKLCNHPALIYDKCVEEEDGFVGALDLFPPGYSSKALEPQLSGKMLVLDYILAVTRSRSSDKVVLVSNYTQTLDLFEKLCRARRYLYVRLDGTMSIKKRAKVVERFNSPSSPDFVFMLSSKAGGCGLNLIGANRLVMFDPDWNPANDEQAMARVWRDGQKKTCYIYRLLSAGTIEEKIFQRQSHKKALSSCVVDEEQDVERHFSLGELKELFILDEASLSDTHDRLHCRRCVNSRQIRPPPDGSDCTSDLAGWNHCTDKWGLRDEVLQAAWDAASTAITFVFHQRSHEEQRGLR
# [5] = biological target: T1, Short transient receptor potential channel 4; experiment: mouse TRPC4 channel activators, dose response, cell-based, HEK293 TRPC4/mu-opioid, Fluo-4 calcium (AID 434937); assay type: functional
# Cytochrome P450 2C19 = Cytochrome P450 2C19 (Homo sapiens, UniProt P33261); experiment: Cytochrome panel assay with activity outcomes. Panel member name: p450-cyp2c19 Compounds with AC50 equal or less than 10 uM are considered active; assay type: functional; settings: read-out: AC50
# Chain of Cytochrome P450 2C19 (P33261 whole entry): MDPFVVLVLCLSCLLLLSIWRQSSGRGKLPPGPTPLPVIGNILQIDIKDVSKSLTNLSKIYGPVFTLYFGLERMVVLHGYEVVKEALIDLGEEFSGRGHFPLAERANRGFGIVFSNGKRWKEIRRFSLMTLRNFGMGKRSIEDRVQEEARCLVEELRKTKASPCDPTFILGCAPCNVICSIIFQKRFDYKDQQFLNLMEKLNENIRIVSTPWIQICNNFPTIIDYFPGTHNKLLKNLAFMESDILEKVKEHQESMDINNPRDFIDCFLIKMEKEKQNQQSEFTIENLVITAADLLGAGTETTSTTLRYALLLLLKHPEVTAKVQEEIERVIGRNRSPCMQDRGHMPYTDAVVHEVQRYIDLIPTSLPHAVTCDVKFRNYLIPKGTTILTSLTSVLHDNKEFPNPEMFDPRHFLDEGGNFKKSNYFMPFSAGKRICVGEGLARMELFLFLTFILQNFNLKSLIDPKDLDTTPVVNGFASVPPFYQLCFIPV
# BJ [6] = experiment: cytotoxicity toward BJ-TERT fibroblasts, dose response, cell-based, RAS-independent, luminescence (AID 1933); assay type: functional; settings: Homo sapiens
# BJ [7] = experiment: cells; assay type: functional, cell-based, Homo sapiens; settings: Homo sapiens, BJ
# BJ [8] = experiment: cytotoxicity toward BJ-TERT-LT-ST fibroblasts, dose response, cell-based, RAS-independent, luminescence (AID 1935); assay type: functional; settings: Homo sapiens;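 further: BJ fibroblasts immortalized with TERT plus LT and ST oncogenes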
# [9] = cytotoxicity toward DRD oncogenic fibroblasts, dose response, cell-based, non-viral oncogenic, luminescence (AID 1934); assay type: functional; settings: Homo sapiens
# Chain of Cytochrome P450 3A4 (P08684 whole entry): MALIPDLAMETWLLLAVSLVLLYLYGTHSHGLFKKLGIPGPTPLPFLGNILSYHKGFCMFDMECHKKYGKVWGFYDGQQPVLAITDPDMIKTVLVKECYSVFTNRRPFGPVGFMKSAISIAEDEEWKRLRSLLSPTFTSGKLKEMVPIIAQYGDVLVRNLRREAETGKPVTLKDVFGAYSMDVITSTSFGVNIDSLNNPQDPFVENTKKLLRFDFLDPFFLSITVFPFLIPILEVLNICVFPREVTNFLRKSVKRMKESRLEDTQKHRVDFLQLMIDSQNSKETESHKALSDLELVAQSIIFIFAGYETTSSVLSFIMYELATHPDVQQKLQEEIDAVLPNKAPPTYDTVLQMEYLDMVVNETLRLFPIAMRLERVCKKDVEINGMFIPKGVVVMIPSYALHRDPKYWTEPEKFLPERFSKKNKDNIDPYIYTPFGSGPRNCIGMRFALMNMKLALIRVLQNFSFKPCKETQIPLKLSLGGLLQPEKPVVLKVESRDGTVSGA
structure (smiles),measurement,setting,value
CCCc1nc(C(C)(C)O)c(C(=O)OCc2oc(=O)oc2C)n1Cc1ccc(-c2ccccc2-c2nnn[nH]2)cc1 [OLMESARTAN MEDOXOMIL],AC50,Cytochrome P450 3A4,25.1 µM (inconclusive)
Cc1ccc(S(=O)(=O)Nc2ccc3c(c2)CC(=O)N([C@H](C)CO)C[C@@H](C)[C@@H](CN(C)S(=O)(=O)c2ccccc2)O3)cc1,AC50,[1],2.27 µM (active)
C[C@@H]1CN([C@H](C)CO)C(=O)c2cccc(NC(=O)CCCCCC(=O)Nc3ccccc3N)c2O[C@H]1CN(C)Cc1ccc(-c2ccccc2)cc1,AC50,[1],2.18 µM (active)
CC1(C)C(O)C=C[C@@]2(C)C1CC(=O)O[C@@]1(C)C3=CC(=O)OC(c4ccoc4)[C@]3(C)CCC21 (stereo not given in full),AC50,Cytochrome P450 3A4,2 µM (inconclusive)
CCCn1c(-c2ccc(F)cc2)nc2c(NCCCN(CCO)CCO)nc(C)nc21,AC50,Cytochrome P450 3A4,15.8 µM (inconclusive)
Nc1cc(N2CCCCC2)c([N+](=O)[O-])cc1Cl,EC50,[2],5.31 µM (active)
Cc1cccc(CN2CCCC(C(=O)Nc3ccccc3Oc3cccnc3)C2)c1 (stereo not given),EC50,[2],4.22 µM (active)
C[C@@H]1CN([C@@H](C)CO)C(=O)c2cc(NS(=O)(=O)c3ccccc3)ccc2O[C@H]1CN(C)Cc1ccc(C(=O)Nc2ccccc2N)cc1,AC50,[1],4.83 µM (active)
Cc1nn(C(=O)CNS(=O)(=O)c2ccccc2)c(C)c1Sc1ccc(Cl)cc1,AC50,[3],4.2 µM (active)
same,EC50,[2],1.33 µM (active)
same,EC50,Protein RecA,17.2 µM (active)
CC(=O)OCC1OC(Oc2cc(OC(C)=O)c3c(=O)cc(-c4ccc(OC(C)=O)cc4)oc3c2)[C@@H](OC(C)=O)C(OC(C)=O)C1OC(C)=O (stereo not given in full),AC50,Cytochrome P450 3A4,10 µM (inconclusive)
FC(F)(F)c1ccc(CN2C[C@@H]3C(c4ccc(C(F)(F)F)cc4)C4(c5cccnc5)CC3(C4)[C@H]2c2ccccc2)cc1 (stereo not given in full),AC50,Cytochrome P450 3A4,31.6 µM (inconclusive)
same,AC50,INS1,6.2 µM (active)
Cc1nc2ccccc2c2oc(C(=O)NCCN3CCN(C)CC3)cc12,AC50,[4],39.9 µM (active)
CCN(CC)CCN=C(S)Nc1ccc2nc(N3CCN(CC)CC3)cc(C)c2c1,AC50,[4],15.3 µM (active)
Cc1ccc(N(CC(=O)NC2CCCC2)C(=O)CNC(=O)c2cccs2)cc1F,EC50,[2],5.96 µM (active)
Cc1cc(Nc2ccc3c(c2)OCCO3)c2cccc(C)c2n1,AC50,[4],13.9 µM (active)
Cc1ccn2c(CNCCCn3cccn3)c(C(=O)N3CCCCCC3)nc2c1,EC50,[2],2.11 µM (active)
CCOC(=O)C1(CC2CC2)CCN(Cc2c[nH]nc2-c2ccccc2)CC1,EC50,[5],1.33 µM (active)
same,EC50,[2],0.944 µM (active)
C[C@@H]1CN([C@H](C)CO)C(=O)c2cccc(NC(=O)C3CCCCC3)c2O[C@H]1CN(C)Cc1ccc(C(F)(F)F)cc1,AC50,[1],2.83 µM (active)
CCCCNc1nc(C)nc2c1nc(-c1ccccc1)n2CC1CCN(C)CC1,AC50,Cytochrome P450 3A4,15.8 µM (inconclusive)
COC(=O)C/N=C1/OC(=O)N2C(=O)C3=C4[C@@H](C[C@H]5C(=O)N(c6ccccc6)C(=O)[C@H]5[C@H]4[C@@]12Cc1ccccc1)[C@H]1C(=O)N(c2ccccc2)C(=O)[C@H]1[C@H]3C,AC50,Cytochrome P450 3A4,6.31 µM (inconclusive)
CCCCCN1C2=NCCN2c2ccccc21,EC50,[2],0.841 µM (active)
COc1ccc(-c2nc(-c3cccc(C)c3)nc(N3CCN(C)CC3)c2C#N)cc1,AC50,Cytochrome P450 2C19,20 µM (inconclusive)
same,EC50,BJ [6],16.5 µM (inconclusive)
same,EC50,BJ [7],23.3 µM (active)
same,EC50,BJ [8],> 150 µM (not active)
same,EC50,[9],14.8 µM (inconclusive)
